According to PubChem BioAssay (NCI):
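Growth conditions: 96-well plates. Treatment: test compound, 48 hours, 5 concentrations. Analysis: linear interpolation between bracketing concentrations; unreached endpoints set to highest concentration. Abbreviation: GI50, concentration required for 50% inhibition of growth. TGI denotes the concentration required for complete inhibition of growth.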

How the values were obtained:
Assay in all cases: growth of human tumour cells (NCI), 48 h
MALME-3M melanoma = system: MALME-3M melanoma
HCT-116 colon = system: HCT-116 colon
SF-268 CNS = system: SF-268 CNS
NCI-H226 lung = system: NCI-H226 lung
NCI-H23 lung = system: NCI-H23 lung
MDA-N = system: MDA-N
M14 melanoma = system: M14 melanoma
CAKI-1 renal = system: CAKI-1 renal
HL-60(TB) leukemia = system: HL-60(TB) leukemia
SK-MEL-5 melanoma = system: SK-MEL-5 melanoma

SMILES | TGI (MALME-3M melanoma) | TGI (HCT-116 colon) | TGI (SF-268 CNS) | TGI (NCI-H226 lung) | TGI (NCI-H23 lung) | TGI (MDA-N) | TGI (M14 melanoma) | TGI (CAKI-1 renal) | TGI (HL-60(TB) leukemia) | TGI (SK-MEL-5 melanoma) | GI50 (MALME-3M melanoma) | GI50 (HCT-116 colon) | GI50 (SF-268 CNS) | GI50 (HL-60(TB) leukemia) | GI50 (NCI-H226 lung) | GI50 (NCI-H23 lung) | GI50 (SK-MEL-5 melanoma) | GI50 (CAKI-1 renal) | GI50 (M14 melanoma)
O=[N+]([O-])C(/C(Cl)=C(/Cl)N1CCOCC1)=C1\NCCO1 | > 100 µM | > 100 µM | > 100 µM | > 100 µM | > 100 µM | > 100 µM | > 100 µM | > 100 µM |  |  |  |  |  |  |  |  |  |  | 
C=Nc1ccc([N+](=O)[O-])cc1 | > 100 µM | > 100 µM | > 100 µM | > 100 µM | > 100 µM |  | > 100 µM | > 100 µM | > 100 µM | > 100 µM |  |  |  |  |  |  |  |  | 
Cc1cn(C2CC(O)C(CO)C2C)c(=O)[nH]c1=O (configuration not stated) | > 100 µM | > 100 µM | > 100 µM | > 100 µM | > 100 µM |  | > 100 µM |  | > 100 µM |  |  |  |  |  |  |  |  |  | 
CCN1CCN(C(=O)[C@]23CC[C@@H](C)[C@H](C)[C@@H]2C2=CC[C@@H]4[C@@]5(C)C/C(=C/c6cccnc6)C(=O)C(C)(C)[C@@H]5CC[C@@]4(C)[C@]2(C)CC3)CC1 | 2.75 µM | 3.55 µM | 4.02 µM | 4.07 µM | 5.91 µM |  |  | 11.8 µM | 5 µM | 3.14 µM | 1.4 µM | 1.69 µM | 1.77 µM | 2.08 µM | 1.89 µM | 2.13 µM | 1.75 µM | 2.12 µM | 
CN(C)N=Nc1ccc([N+](=O)[O-])cc1C(N)=O | > 100 µM | > 100 µM | > 100 µM | > 100 µM | > 100 µM |  |  | > 100 µM |  | > 100 µM |  |  |  |  |  |  |  |  | 
C[C@]12CC[C@H]3[C@@H](CCC4=CC(=O)C=C[C@@]43O)[C@@H]1CCC2=O |  | > 100 µM |  | > 100 µM | > 100 µM | > 100 µM | > 100 µM | > 100 µM |  | > 100 µM |  |  |  |  |  |  |  |  | 
CC(=O)Nc1ccc(S(=O)(=O)Nc2nnc(S(N)(=O)=O)s2)cc1 | > 100 µM | > 100 µM | > 100 µM | > 100 µM | > 100 µM |  | > 100 µM | > 100 µM | > 100 µM |  |  |  |  |  |  |  |  |  | 
CO/C(=N\N=C\c1ccc(Cl)cc1)c1ccncc1 | > 100 µM | > 100 µM | > 100 µM | > 100 µM | > 100 µM |  | > 100 µM | > 100 µM | > 100 µM | > 100 µM |  |  |  |  |  |  |  |  | 
COc1cc(Oc2nc3ccccc3nc2C(=O)O)cc(OC)c1OC | > 100 µM | > 100 µM | > 100 µM | > 100 µM | > 100 µM |  | > 100 µM | > 100 µM | > 100 µM | > 100 µM |  |  |  |  |  |  |  |  | 
CCN(CC)CCCCCCCCNc1c2ccc(Cl)cc2nc2ccc(OC)cc12 |  | 3.14 µM | 3.76 µM | 3.74 µM | 7.25 µM |  | 3.34 µM | 6.67 µM | 4.08 µM | 2.89 µM |  | 1.36 µM | 1.7 µM | 2.04 µM | 1.74 µM | 2.28 µM | 1.54 µM | 2.37 µM | 1.84 µM
C(=N\Nc1ncc(-c2cc3cc4c(cc3o2)OCO4)s1)/c1c[nH]c2ccccc12 | 4.02 µM | 10.2 µM | 2.86 µM |  | 5.19 µM |  | 12.7 µM | 3.21 µM | 14.4 µM | 3.23 µM | 1.4 µM | 2.13 µM | 0.589 µM | 2.18 µM |  | 1.77 µM | 1.66 µM | 1.18 µM | 3.34 µM
CC1(C)O[C@H](C(=O)O)[C@@H](C(=O)O)O1 | > 100 µM | > 100 µM | > 100 µM | > 100 µM |  | > 100 µM | > 100 µM | > 100 µM |  | > 100 µM |  |  |  |  |  |  |  |  | 
COC(=O)C1=C(C)N2CCCOC2(C)C(C(=O)OC)C1c1cccc(Cl)c1 (configuration not stated) |  | > 100 µM | > 100 µM | 59.6 µM | > 100 µM |  | 74.7 µM | 92.5 µM | 58.4 µM | > 100 µM |  |  |  |  |  |  |  |  | 
O=C1C=Cc2c(Cl)sc(Cl)c21 |  | 2.33 µM | 3.58 µM | 16.1 µM | 5.68 µM |  | 3.99 µM | 4.57 µM |  | 8.09 µM |  |  |  |  |  |  |  |  | 
O=S(=O)(c1ccccc1)n1c(C(O)c2ccncc2)cc2ccccc21 (configuration not stated) |  | > 100 µM |  | > 100 µM | > 100 µM | > 100 µM | > 100 µM | > 100 µM |  | 35.4 µM |  |  |  |  |  |  |  |  | 
CC(C)(C)C#C[P+](c1ccccc1)(c1ccccc1)c1ccccc1 | 1.68 µM | 0.95 µM | 1.48 µM | 0.984 µM | 1.38 µM |  | 1.21 µM | 2.91 µM | 0.0865 µM | 0.634 µM |  |  |  |  |  |  |  |  | 
Cc1nc2c(cc1C(=O)NN)c(=O)n(C)c(=O)n2C |  | > 100 µM |  | > 100 µM | > 100 µM | > 100 µM | > 100 µM | > 100 µM |  | > 100 µM |  |  |  |  |  |  |  |  | 
COC12C=C/C(=C(/C(=O)OCc3ccncn3)C(=O)CCCCCCCCC3(OC)C=C/C(=C(/C(=O)OCc4ccncn4)C(=O)CCCCCCCC1)O3)O2 | 0.629 µM | 1.09 µM | 1.92 µM |  | 0.944 µM |  | 3.23 µM | 2.21 µM | 1.4 µM |  | 0.228 µM | 0.266 µM | 0.314 µM | 0.298 µM |  | 0.293 µM |  | 0.349 µM | 0.286 µM
